Measurements as given in article PMC9897788, “Design, synthesis and cytotoxic evaluation of novel bis-thiazole derivatives as preferential Pim1 kinase inhibitors with in vivo and in silico study” (Journal of Enzyme Inhibition and Medicinal Chemistry, 2023).

Tests used:
RXF 393 = assay: NCI 60 cell one-dose screening (SRB); format: cell-based; conditions: Homo sapiens; RXF 393, Renal Cancer; single dose 10 µM, 48 h; read-out: Percentage of cellular growth inhibition
In short: (§1)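 Single 10 µM final dose, 48 h at 37 °C in RPMI 1640 with 5% FBS, cells plated 24 h before dosing. TCA fixation (10% adherent, 16% suspension), SRB staining, absorbance at 515 nm. Growth percentage versus no-drug control with time-zero correction, reported as inhibition % (100 minus growth).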

SF-539 = assay: NCI 60 cell one-dose screening (SRB); format: cell-based; conditions: Homo sapiens; SF-539, CNS Cancer; single dose 10 µM, 48 h; read-out: Percentage of cellular growth inhibition
In short: as §1

SF-295 = assay: NCI 60 cell one-dose screening (SRB); format: cell-based; conditions: Homo sapiens; SF-295, CNS Cancer; single dose 10 µM, 48 h; read-out: Percentage of cellular growth inhibition
In short: as §1

MCF7 = assay: NCI 60 cell one-dose screening (SRB); format: cell-based; conditions: Homo sapiens; MCF7, Breast Cancer; single dose 10 µM, 48 h; read-out: Percentage of cellular growth inhibition
In short: as §1

NCI-H522 = assay: NCI 60 cell one-dose screening (SRB); format: cell-based; conditions: Homo sapiens; NCI-H522, Non-Small Cell Lung Cancer; single dose 10 µM, 48 h; read-out: Percentage of cellular growth inhibition
In short: as §1

LOX IMVI = assay: NCI 60 cell one-dose screening (SRB); format: cell-based; conditions: Homo sapiens, Melanoma, single dose 10 µM, 48 h, read-out: Percentage of cellular growth inhibition
In short: as §1

IGROV1 = assay: NCI 60 cell one-dose screening (SRB); format: cell-based; conditions: Homo sapiens, IGROV-1; IGROV1, Ovarian Cancer; single dose 10 µM, 48 h; read-out: Percentage of cellular growth inhibition
In short: as §1

NCI-H226 = assay: NCI 60 cell one-dose screening (SRB); format: cell-based; conditions: Homo sapiens; NCI-H226, Non-Small Cell Lung Cancer; single dose 10 µM, 48 h; read-out: Percentage of cellular growth inhibition
In short: as §1

SR = assay: NCI 60 cell one-dose screening (SRB); format: cell-based; conditions: Homo sapiens, Leukemia, single dose 10 µM, 48 h, read-out: Percentage of cellular growth inhibition
In short: as §1

OVCAR-3 = assay: NCI 60 cell one-dose screening (SRB); format: cell-based; conditions: Homo sapiens; OVCAR-3, Ovarian Cancer; single dose 10 µM, 48 h; read-out: Percentage of cellular growth inhibition
In short: as §1

SNB-75 = assay: NCI 60 cell one-dose screening (SRB); format: cell-based; conditions: Homo sapiens; SNB-75, CNS Cancer; single dose 10 µM, 48 h; read-out: Percentage of cellular growth inhibition
In short: as §1

A498 = assay: NCI 60 cell one-dose screening (SRB); format: cell-based; conditions: Homo sapiens; A498, Renal Cancer; single dose 10 µM, 48 h; read-out: Percentage of cellular growth inhibition
In short: as §1

786-0 = assay: NCI 60 cell one-dose screening (SRB); format: cell-based; conditions: Homo sapiens; 786-0, Renal Cancer; single dose 10 µM, 48 h; read-out: Percentage of cellular growth inhibition
In short: as §1

MDA-MB-435 = assay: NCI 60 cell one-dose screening (SRB); format: cell-based; conditions: Homo sapiens; MDA-MB-435, Melanoma; single dose 10 µM, 48 h; read-out: Percentage of cellular growth inhibition
In short: as §1

T-47D = assay: NCI 60 cell one-dose screening (SRB); format: cell-based; conditions: Homo sapiens, T47D, 48 h, Breast Cancer, single dose 10 µM, read-out: Percentage of cellular growth inhibition
In short: as §1

HT29 = assay: NCI 60 cell one-dose screening (SRB); format: cell-based; conditions: Homo sapiens, HT-29; HT29, Colon Cancer; single dose 10 µM, 48 h; read-out: Percentage of cellular growth inhibition
In short: as §1

SK-MEL-2 = assay: NCI 60 cell one-dose screening (SRB); format: cell-based; conditions: Homo sapiens; SK-MEL-2, Melanoma; single dose 10 µM, 48 h; read-out: Percentage of cellular growth inhibition
In short: as §1

[1] = tested on: Breast T47D cancer cell line; assay: In vitro inhibition concentration of breast T47D cancer cell line; format: cell-based; conditions: Homo sapiens
Procedure: Cells were seeded and treated with a range of inhibitors concentration 39–10,000 nM after 24 h relative to DMSO. […]

| SMILES | inhibition at 10 µM (RXF 393) [%] | inhibition at 10 µM (SF-539) [%] | inhibition at 10 µM (SF-295) [%] | inhibition at 10 µM (MCF7) [%] | inhibition at 10 µM (NCI-H522) [%] | inhibition at 10 µM (LOX IMVI) [%] | inhibition at 10 µM (IGROV1) [%] | inhibition at 10 µM (NCI-H226) [%] | inhibition at 10 µM (SR) [%] | inhibition at 10 µM (OVCAR-3) [%] | inhibition at 10 µM (SNB-75) [%] | inhibition at 10 µM (A498) [%] | inhibition at 10 µM (786-0) [%] | inhibition at 10 µM (MDA-MB-435) [%] | inhibition at 10 µM (T-47D) [%] | inhibition at 10 µM (HT29) [%] | inhibition at 10 µM (SK-MEL-2) [%] | melting point [°C] | IC50 ([1]; 48 h) [µM] | IC50 ([1]; 96 h) [µM] |
| --- | --- | --- | --- | --- | --- | --- | --- | --- | --- | --- | --- | --- | --- | --- | --- | --- | --- | --- | --- | --- |
| Clc1ccc(-c2cs/c(=N\c3ccccc3)n2-c2cccc(-n3c(-c4ccc(Cl)cc4)cs/c3=N\c3ccccc3)c2)cc1 [8c, N,N’-(3,3’-(1,3-phenylene)bis(4–(4-chlorophenyl)thiazole-3(3H)-yl-2(3H)-ylidene))dianiline] | 8.4 | -3 | -17.9 | 23.4 | 42.2 | 50.6 | -0.4 | 16.9 | 12.1 | -6.6 | 14.6 | -16.3 | -6.9 | 5.4 | 8.9 | 12.4 | -9.6 | 120 to 121 | – | – |
| Fc1ccc(-c2csc(Nc3cccc(Nc4nc(-c5ccc(F)cc5)cs4)c3)n2)cc1 [6b, N^1,N^3-bis(4–(4-fluorophenyl)thiazol-2-yl)benzene-1,3-diamine] | 24.5 | 29.1 | 9.6 | 75.3 | 93.8 | 60.7 | 58.2 | 48.5 | 48.6 | 42.5 | 4.8 | 21.7 | 31.2 | 36.9 | – | 37.7 | 65.3 | 80 to 83 | 5.92 | 1.61 |
| c1ccc(/N=c2\scc(-c3ccccc3)n2-c2cccc(-n3c(-c4ccccc4)cs/c3=N\c3ccccc3)c2)cc1 [8a, N,N’-(3,3’-(1,3-phenylene)bis(4-phenylthiazole-3(3H)-yl-2(3H)-ylidene))dianiline] | 10.3 | -7.1 | -22.4 | 18 | 12.2 | 22.6 | -6.1 | 17 | 6.1 | -3.6 | 11.7 | -18.1 | -11.1 | 1 | 10.2 | -3.1 | 12.6 | 110 to 111 | – | – |
